Earlier results in publication PMC11261219 (Clinical and Molecular Hepatology, 2024).

Experiments:
HBV DNA and HBV RNA = settings: added to patients taking NUCs, versus NUCs alone
HBV = settings: after 3 years

| Compound | suppression of HBV DNA and HBV RNA (HBV DNA and HBV RNA) | functional cure, patients (HBV) |
| --- | --- | --- |
| O=C(NCc1cnc(C(F)(F)F)s1)c1ccc2c(c1)NC(=O)c1ccccc1S2(=O)=O [vebicorvir] | further suppressed HBV DNA and HBV RNA more than with NUCs alone |  |
| pegylated interferon [pegIFN] |  | approximately 11% |
